The source of these data is US20070059299A1, “S-adenosyl methionine decarboxylase inhibition for the treatment of a herpes simplex virus infection” (Institut National de la Sante et de la Recherche Medicale …, priority 2002, published 2007).

The inhibition is the share of the control response that was lost under treatment. A high value points to strong suppression.

For experiment [1], the system named is acyclovir-susceptible reference strain SC16. Description: Antiviral susceptibility testing by ELISA on HEp-2 cells, strain SC16. In kind it is cell-based, HSV 1. The procedure:
(§1) Three HSV 1 reference strains were tested : SC16 (acyclovir-susceptible reference strain; (Hill et al., 1975)), DM21 (acyclovir-resistant reference strain derived from SC16; (Efstathiou et al., 1989)) and TP 2.5 (foscarnet-resistant reference strain derived from SC16; (Larder and Darby, 1985)). Antiviral assays were performed in duplicate on HEp-2 cells seeded in 96 wells microplates. Dilutions of virus and drugs were prepared in E-MEM without FCS. Cells were first treated for 24 hours with MGBG using a series of 6 twofold serial dilutions from 12.5 to 400 μM. Infection was then achieved with 5 tenfold dilutions of cell-associated virus (10^−1 to 10^−5). Each dilution was incubated with a series of 6 concentrations of each antiviral drug (from 12.5 to 400 μM in twofold dilutions for MGBG, from 0.16 to 500 μM in fivefold dilutions for acyclovir and from 31 to 1000 μM in twofold dilutions for foscarnet). […] After incubation at 36° C. with 5% CO2 for 24 hours post-infection, medium was replaced with freshly prepared dilutions of MGBG. Viral multiplication was checked 24 hours afterwards by an ELISA (Morfin et al., 1999), using a rabbit monoclonal anti-HSV 1 antibody (BO 114, Dako) and a protein A peroxidase-conjugated (BioRad). The substrate, 2,2′-azino-di(3-ethyl-benzthiazoline) sulfonic acid (ABTS) diluted in ABTS buffer (Boehringer, Mannheim), was added to each well. After 30 min at room temperature, the plates were briefly agitated and optical densities were read at 405 nm with a multichannel spectrophotomoter (Titertek-Multiskan). Optical density values were used with the Biolise program (Life Sciences International) to calculate the concentration of the drug causing a 50% inhibition of viral replication (IC50) by logistic regression analysis.
(§2) The capacity of MGBG to preclude infection of three HSV-1 acyclovir and/or foscarnet resistant strains was tested. […] The ED values were determined.
In general terms: ELISA stands for enzyme-linked immunosorbent assay.

The test system of experiment [2] is acyclovir-resistant reference strain DM21. Briefly: Antiviral susceptibility testing by ELISA on HEp-2 cells, strain DM21. In kind it is cell-based, HSV 1. Particulars: for IC50: HEp-2 cells, ELISA, median of at least three assays, drugs diluted in μM, read-out: Susceptibility of strain DM21 (concentration causing 50% inhibition of viral replication, IC50), median. The procedure: as §1
The capacity of MGBG to preclude infection of three HSV-1 acyclovir and/or foscarnet resistant strains was tested. The reference strains used in this study were the SC16 acyclovir-susceptible reference strain, the DM21 acyclovir-resistant reference strain derived from SC16 and the TP 2.5 foscarnet-resistant reference strain derived from SC16 (Efstathiou et al., 1989; Hill et al., 1975; Larder and Darby, 1985). In each experiment, dose response curves were constructed for […], for acyclovir, and for MGBG. The ED values were determined.

The subject of experiment [3] is foscarnet-resistant reference strain TP 2.5. Briefly: Antiviral susceptibility testing by ELISA on HEp-2 cells, strain TP 2.5. In kind it is cell-based, HSV 1. Conditions: median of at least three assays, drugs diluted in μM, read-out: Susceptibility of strain TP2.5 (concentration causing 50% inhibition of viral replication, IC50), median. As for the experimental part: as §1, §2

The next experiment has as its target T1, SAMDC (Rattus norvegicus, UniProt P17708).
T1 construct: according to the procedure described in Pegg A E, Poso H, S-adenosylmethionine decarboxylase (rat liver), Methods Enzymol; 1983;94: 234-239; from tissue
T1 sequence (P17708 68-333 limits assumed): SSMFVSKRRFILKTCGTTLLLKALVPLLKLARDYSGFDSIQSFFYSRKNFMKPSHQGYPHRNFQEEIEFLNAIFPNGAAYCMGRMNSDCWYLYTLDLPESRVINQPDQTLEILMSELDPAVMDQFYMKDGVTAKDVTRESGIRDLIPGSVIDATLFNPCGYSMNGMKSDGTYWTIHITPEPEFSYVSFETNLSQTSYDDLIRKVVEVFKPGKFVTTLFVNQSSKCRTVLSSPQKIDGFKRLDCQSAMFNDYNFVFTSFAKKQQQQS
T1 sequence (P17708 1-67 limits assumed): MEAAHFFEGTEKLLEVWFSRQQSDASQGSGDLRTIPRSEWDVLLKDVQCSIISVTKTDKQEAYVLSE
Description: SAMDC inhibition in vitro. The experiment is classed as biochemical. Particulars: inhibitor at 0.1 μM. An excerpt:
The results of SAMDC inhibition in vitro and of HSV replications in cellulo for MGBG and Compounds (I) to (III) disclosed above are reported in the table below.

A further experiment has as its system HSV. Briefly: HSV replication in cellulo. Conditions: read-out: HSV inhibition in cellulo IC50. The experiment is classed as cell-based. The procedure: as §1
Experiment [4] concerns HSV-1 proteins, mRNA and DNA. Description: Levels of viral proteins (Western blot), mRNA and DNA (slot blot) in infected HEp2 cells. In kind it is cell-based. Particulars: 6 h pre-treatment with 100 μM MGBG, then MGBG and 50 μM spermine, 24 h p.i. In general terms: In western blotting, separated proteins are transferred to a membrane and probed.
Description: Total RNA and DNA from control mock-infected and infected HEp2 cells were purified using Qiagen RNA/DNA kit. RNA were submitted to DNAse/RNAse free digestion (1.5 unit/μg RNA) and DNA were submitted to RNAse A digestion (10 units/μg). Quantitation of SAMDC mRNA, of viral mRNAs and viral DNA present in each sample was determined by slot blot analysis using the 1250 bp PstI/PvuII fragment of pSAMr1 plasmid (Pajunen et al., 1988). The 746 bp SalI-EcoNI fragment of pSG28 and the 1308 bp MluI fragment of pSG124 plasmids (Goldin et al., 1981) were labelled with [^32P] and used as probes to detect the immediate early ICP27 and the early UL42 mRNAs respectively. Us11 late mRNA was detected with [^32P]-labelled probe composed of the 230 bp XhoI fragment of pHSV-Us12 plasmid (Diaz et al., 1996). Viral DNA was detected using the ICP27 specific DNA probe.
Mock-infected and HSV-1-infected HEp2 cells were washed three times with ice cold phosphate-buffered saline (PBS) (130 mM NaCl, 4 mM Na2HPO4.2H2O, 1.5 mM KH2PO4), scrapped into PBS, and collected by centrifugation at 500×g. Cells were resuspended in Laemmli buffer (Laemmli, 1970). Proteins were resolved by polyacrylamide gel electrophoresis and transferred by electroblotting onto a polyvinylidene difluoride membrane (Immobilon-P; Millipore). Viral proteins were analysed by Western blots (10 μg aliquots) using a 50 fold dilution of either a rabbit polyclonal anti-ICP27 antibody, or a rabbit polyclonal anti-Us11 antibody (Diaz et al., 1993), or a mouse monoclonal anti-UL42 antibody diluted 50 fold.
Cells were pre-treated with 10 to 200 μM of MGBG, then infected with HSV-1 in the presence of the same concentrations of MGBG. Proteins, RNA and DNA were extracted from cells infected for 24 h. Viral proteins were detected by Western blot using specific antibodies, whereas viral mRNA and DNA levels were assayed by slot blot analysis.
Experiment [5] deals with HSV-1 macroplaque strain (MP). The experiment is classed as cell-based. Conditions: 50 μM spermine added with 100 μM MGBG and virus, or 2 h later. As for the experimental part: HEp2 cells were grown as monolayers in Eagle's minimum essential medium (E-MEM) supplemented or not with 5% heat-inactivated foetal calf serum (FCS) and supplemented with 100 U/ml penicillin and 100 U/ml streptomycin. The cells were maintained at 37° C. under 5% CO2. The HSV-1 macroplaque strain (MP), obtained from B. Jacquemont (Lyon, France), was a gift of B. Roizman (Chicago, Ill., U.S.A.), and was used throughout this study. Viruses were grown in HEp2 cells.
HEp2 cells were grown in 6-well plates (˜10^6 cells/well) and infected just before confluence with a multiplicity of infection (m.o.i.) of 0.5 plaque-forming units (PFU) per cell in E-MEM in absence of FCS, except for some experiments. After adsorption of the virus for 1 h at 33° C. under 5% CO2, the medium containing the virus suspension was removed and the cells were washed with E-MEM, then incubated in E-MEM without FCS at 37° C. for different periods of times until harvest. Times post-infection (p.i.) were calculated from the time of addition of the virus suspension. HEp2 cells were exposed to MGBG treatment for different times. When cells were pre-treated with MGBG prior infection, MGBG was added to cell medium 6 h or 24 h prior infection until harvest. In non pre-treated cells, MGBG was added simultaneously with virus suspension, or 2 h, 4 h or 6 h latter. When cells were treated for more than 24 h, medium was replaced every 24 h with fresh medium containing the same concentration of MGBG.
Accordingly, the effect of inactivation of enzymes involved in polyamine biosynthesis upon HSV-1 infection inhibition was assessed. The HSV-1 MP strain was used throughout this study for its ability to induce the formation of large syncytia from infected cells. Therefore, it was possible to easily and quickly investigate the inhibition of viral replication at the level of syncytia formation.
To investigate the effect of the concentration of MGBG on viral infection, HEp2 cells were infected with 0.5 PFU of HSV-1 per cell in FCS free medium in which 10 μM to 300 μM MGBG was added from the adsorption step of the virus until the end of the experiment. After 24 h of infection, the formation of syncytia was observed, and the number of syncytia was estimated by counting using the optical microscope.
HEp2 cell were pre-treated with MGBG by incubation in FCS free medium containing 10 to 300 μM MGBG 6h to 24 h before infection. Then cells were infected as described above and MGBG was maintained in the medium until the end of the experiment.

Like-named read-outs stand apart in the source and are kept apart here.

For `O=C(O)P(=O)(O)O` [Foscarnet, foscarnet], the IC50 was 224 µM in experiment [1] (HEp-2, read-out: Susceptibility of strain SC16 (concentration causing 50% inhibition of viral replication, IC50), median); 148 µM in experiment [2]; above 1000 µM in experiment [3]. The “decreased IC50 on acyclovir-resistant strains versus acyclovir-susceptible strain” value in experiment [2] (compared with SC16) was determined as 34%.

At SAMDC, `CC(NNC(=N)N)c1cccc(C(=N)N)n1` (centres unmarked) [Compound (III)] showed an inhibition at 0.1 µM of 97%.

As to `Nc1nc2c(ncn2COCCO)c(=O)[nH]1` [Acyclovir, acyclovir], the IC50 in experiment [1] (HEp-2 cells, ELISA, median of at least three assays, drugs diluted in μM, read-out: Susceptibility of strain SC16 (concentration causing 50% inhibition of viral replication, IC50), median) was 28 µM; in experiment [2] it was above 500 µM; in experiment [3], 215 µM.

Take `N=C(N)c1cccc2c1CC/C2=N\N=C(N)N` [Compound (II), SAM486A]: the “% inhibition in vitro (0.1 μM)” value on SAMDC was found to be 97%. Besides, the IC50 with HSV amounted to 47 µM.

In the case of `NCCCNCCCCNCCCN` [spermine], the “MGBG-induced viral inhibition in the presence of exogenous spermine” value in experiment [4] is “abolished the MGBG-induced viral inhibition”. Also, the “MGBG inhibition of viral infection on addition of exogenous spermine” value in experiment [5] is “totally prevented”.

As for `N=C(N)c1ccc(/N=N/Nc2ccc(C(=N)N)cc2)cc1` [Compound (I), Berenil], the “% inhibition in vitro (0.1 μM)” value on SAMDC amounted to 47%. Also, the IC50 in the experiment with HSV came out at 70 µM.
